Read-outs that look alike come from different tables or passages of the source.
Assays:
[1] = test system: P. aeruginosa PAO1 biofilms; assay: Checkerboard biofilm synergy of AB103-D with antimicrobials, PAO1; assay type: cell-based, Pseudomonas aeruginosa; conditions: for FIC against biofilms: antibiotic used with AB103-D, ≤0.5 synergy; for Fold Decrease in concentration of AB103-D: in combination of antibiotic with AB103-D; for Fold Decrease in concentration of AB103-D / Fold Decrease in concentration of Antibiotic: PAO1; for Fold Decrease in concentration of Antibiotic: in combination with AB103-D
[2] = test system: MRSA USA 300 LAC biofilms; assay: Checkerboard biofilm synergy of AB103-D with antimicrobials, MRSA; assay type: cell-based, methicillin resistant Staphylococcus aureus; conditions: for Biofilm MBIC in 10% TSB, 0.1% glucose / Fold decrease AB103-D / Fold decrease Antibiotic: MRSA; for FIC: antibiotic used with AB103-D, MRSA USA 300 LAC, ≤0.5 synergy; for Fold decrease AB103-D: in combination of antibiotic with AB103-D; for Fold decrease Antibiotic: in combination with AB103-D
[3] = test system: P. aeruginosa PAO1 planktonic cells; assay: MIC of antibiotics against planktonic cells, PAO1; assay type: cell-based, Pseudomonas aeruginosa; conditions: for MIC against planktonic cells in BM2 medium: PAO1, BM2; for MIC against planktonic cells in MHB medium: PAO1, MHB; for MIC: Pseudomonas aeruginosa
[4] = test system: MRSA USA 300 LAC planktonic cells; assay: MIC of antibiotics against planktonic cells, MRSA; assay type: cell-based, methicillin resistant Staphylococcus aureus; conditions: for MIC in 10% TSB, 0.1% glucose / MIC in MHB medium: MRSA planktonic; for MIC: Staphylococcus aureus
[5] = antibiotic alone, PAO1, BM2, at least 70% reduction
[6] = antibiotic alone, at least 70% reduction
[7] = PAO1, read-out: MIC against planktonic cells in BM2 medium
[8] = PAO1, read-out: MIC against planktonic cells in MHB medium
[9] = read-out: MIC in 10% TSB, 0.1% glucose

O=[N+]([O-])[O-].[Ag+] [AgNO3]
Antibiotic MBIC against biofilms [1, 5]: 0.03 µg/mL | FIC against biofilms ([1]; PAO1, BM2): 1 | Fold Decrease in concentration of AB103-D [1]: 2-fold | Fold Decrease in concentration of Antibiotic [1]: 2-fold | Biofilm MBIC in 10% TSB, 0.1% glucose [2, 6]: 0.25 | FIC [2]: 1.13 | Fold decrease AB103-D [2]: No | Fold decrease Antibiotic [2]: 8-fold | MIC against planktonic cells in BM2 medium [3]: 0.03 µg/mL | MIC against planktonic cells in MHB medium [3]: 0.125 µg/mL | MIC in 10% TSB, 0.1% glucose ([4]; 10% TSB, 0.1% glucose): 0.25 | MIC in MHB medium [4]: 0.25 µg/mL

NCC[C@H](O)C(=O)N[C@@H]1C[C@H](N)[C@@H](O[C@H]2O[C@H](CN)[C@@H](O)[C@H](O)[C@H]2O)[C@H](O)[C@H]1O[C@H]1O[C@H](CO)[C@@H](O)[C@H](N)[C@H]1O [Amikacin]
FIC against biofilms ([1]; PAO1, BM2): 1.06 | Fold Decrease in concentration of AB103-D [1]: No | Fold Decrease in concentration of Antibiotic [1]: 16-fold | FIC [2]: 1 | Fold decrease AB103-D [2]: 2-fold | Fold decrease Antibiotic [2]: 2-fold | MIC [3, 7]: 4 µg/mL | MIC [3, 8]: 0.5 µg/mL | MIC [4, 9]: 0.5 µg/mL | MIC ([4]; read-out: MIC in MHB medium): 0.5 µg/mL

CC[C@H]1OC(=O)[C@H](C)[C@@H](O[C@H]2C[C@@](C)(OC)[C@@H](O)[C@H](C)O2)[C@H](C)[C@@H](O[C@@H]2O[C@H](C)C[C@H](N(C)C)[C@H]2O)[C@](C)(O)C[C@@H](C)CN(C)[C@H](C)[C@@H](O)[C@]1(C)O [Azithromycin]
FIC against biofilms ([1]; PAO1, BM2): 0.75 | Fold Decrease in concentration of AB103-D [1]: 2-fold | Fold Decrease in concentration of Antibiotic [1]: 4-fold | FIC [2]: 0.38 | Fold decrease AB103-D [2]: 8-fold | Fold decrease Antibiotic [2]: 4-fold | MIC [3, 7]: 128 µg/mL | MIC [3, 8]: 128 µg/mL | MIC [4, 9]: 4 µg/mL | MIC ([4]; read-out: MIC in MHB medium): 1 µg/mL

C[C@H]1[C@H](NC(=O)/C(=N\OC(C)(C)C(=O)O)c2csc(N)n2)C(=O)N1S(=O)(=O)O [Aztreonam]
FIC against biofilms ([1]; PAO1, BM2): 0.56 | Fold Decrease in concentration of AB103-D [1]: 2-fold | Fold Decrease in concentration of Antibiotic [1]: 16-fold | FIC [2]: 0.75 | Fold decrease AB103-D [2]: 4-fold | Fold decrease Antibiotic [2]: 2-fold | MIC [3, 7]: 8 µg/mL | MIC [3, 8]: 4 µg/mL | MIC [4, 9]: > 128 µg/mL | MIC ([4]; read-out: MIC in MHB medium): > 128 µg/mL

CO/N=C(\C(=O)N[C@@H]1C(=O)N2C(C(=O)[O-])=C(C[N+]3(C)CCCC3)CS[C@H]12)c1csc(N)n1 [Cefepime]
FIC against biofilms ([1]; PAO1, BM2): 0.56 | Fold Decrease in concentration of AB103-D [1]: 2-fold | Fold Decrease in concentration of Antibiotic [1]: 16-fold | FIC [2]: 0.38 | Fold decrease AB103-D [2]: 8-fold | Fold decrease Antibiotic [2]: 4-fold | MIC [3, 7]: 0.5 µg/mL | MIC [3, 8]: 1 µg/mL | MIC [4, 9]: 8 µg/mL | MIC ([4]; read-out: MIC in MHB medium): 8 µg/mL

CC(C)(O/N=C(\C(=O)N[C@@H]1C(=O)N2C(C(=O)[O-])=C(C[n+]3ccccc3)CS[C@H]12)c1csc(N)n1)C(=O)O [Ceftazidime]
FIC against biofilms ([1]; PAO1, BM2): 0.5 | Fold Decrease in concentration of AB103-D [1]: 4-fold | Fold Decrease in concentration of Antibiotic [1]: 4-fold | FIC [2]: 0.5 | Fold decrease AB103-D [2]: 4-fold | Fold decrease Antibiotic [2]: 4-fold | MIC [3, 7]: 2 µg/mL | MIC [3, 8]: 1 µg/mL | MIC [4, 9]: 64 µg/mL | MIC ([4]; read-out: MIC in MHB medium): 32 µg/mL

[H]/N=C(\N/C(=N/[H])NCCCCCCNC(=N)NC(=N)Nc1ccc(Cl)cc1)Nc1ccc(Cl)cc1 [Chlorhexidine]
FIC against biofilms ([1]; PAO1, BM2): 0.63 | Fold Decrease in concentration of AB103-D [1]: 8-fold | Fold Decrease in concentration of Antibiotic [1]: 2-fold | FIC [2]: 0.56 | Fold decrease AB103-D [2]: 2-fold | Fold decrease Antibiotic [2]: 16-fold | MIC [3, 7]: 4 µg/mL | MIC [3, 8]: 3.12 µg/mL | MIC [4, 9]: 1 µg/mL | MIC ([4]; read-out: MIC in MHB medium): 0.4 µg/mL

O=C(O)c1cn(C2CC2)c2cc(N3CCNCC3)c(F)cc2c1=O [Ciprofloxacin]
FIC against biofilms ([1]; PAO1, BM2): 0.53 | FIC [2]: 0.5

CCC[C@@H]1C[C@@H](C(=O)N[C@@H]([C@H]2O[C@H](SC)[C@H](O)[C@@H](O)[C@H]2O)[C@H](C)Cl)N(C)C1 [Clindamycin]
FIC against biofilms ([1]; PAO1, BM2): 1 | Fold Decrease in concentration of AB103-D [1]: 2-fold | Fold Decrease in concentration of Antibiotic [1]: 2-fold | FIC [2]: 0.635 | Fold decrease AB103-D [2]: 2-fold | Fold decrease Antibiotic [2]: 8-fold | MIC [3, 7]: > 256 µg/mL | MIC [3, 8]: > 256 µg/mL | MIC [4, 9]: 0.5 µg/mL | MIC ([4]; read-out: MIC in MHB medium): 0.125 µg/mL

O=C(O)CN(CCN(CC(=O)O)CC(=O)O)CC(=O)O [EDTA]
Antibiotic MBIC against biofilms [1, 5]: 128 µg/mL | FIC against biofilms ([1]; PAO1, BM2): 1.02 | Fold Decrease in concentration of AB103-D [1]: No | Fold Decrease in concentration of Antibiotic [1]: 64-fold | Biofilm MBIC in 10% TSB, 0.1% glucose [2, 6]: 128 | FIC [2]: 0.38 | Fold decrease AB103-D [2]: 4-fold | Fold decrease Antibiotic [2]: 8-fold | MIC against planktonic cells in BM2 medium [3]: >256 µg/mL | MIC against planktonic cells in MHB medium [3]: >256 µg/mL | MIC in 10% TSB, 0.1% glucose ([4]; 10% TSB, 0.1% glucose): 128 | MIC in MHB medium [4]: 64 µg/mL

OO [H2O2]
Antibiotic MBIC against biofilms ([1]; PAO1, BM2, in %): 0.08% | FIC against biofilms ([1]; PAO1, BM2): 0.5 | Fold Decrease in concentration of AB103-D [1]: 4-fold | Fold Decrease in concentration of Antibiotic [1]: 4-fold | Biofilm MBIC in 10% TSB, 0.1% glucose ([2]; in %): 0.0025% | FIC [2]: 0.63 | Fold decrease AB103-D [2]: 8-fold | Fold decrease Antibiotic [2]: 2-fold | MIC against planktonic cells in BM2 medium ([3]; in %): 0.08% | MIC against planktonic cells in MHB medium ([3]; in %): 0.01% | MIC in MHB medium ([4]; in %): 0.0018% | MIC in 10% TSB, 0.1% glucose ([4]; in %): 0.0025%

C[C@H]1COc2c(N3CCN(C)CC3)c(F)cc3c(=O)c(C(=O)O)cn1c23 [Levofloxacin]
Antibiotic MBIC against biofilms [1, 5]: 0.125 µg/mL | FIC against biofilms ([1]; PAO1, BM2): 0.63 | Fold Decrease in concentration of AB103-D [1]: 2-fold | Fold Decrease in concentration of Antibiotic [1]: 8-fold | FIC [2]: 0.75 | Fold decrease AB103-D [2]: 4-fold | Fold decrease Antibiotic [2]: 2-fold | MIC against planktonic cells in BM2 medium [3]: 0.125 µg/mL | MIC [3, 8]: 0.25 µg/mL | MIC [4, 9]: 8 µg/mL | MIC ([4]; read-out: MIC in MHB medium): 4 µg/mL

C[C@@H](O)[C@H]1C(=O)N2C(C(=O)O)=C(S[C@@H]3CN[C@H](C(=O)N(C)C)C3)[C@H](C)[C@H]12 [Meropenem]
FIC against biofilms ([1]; PAO1, BM2): 1.06 | Fold Decrease in concentration of AB103-D [1]: 16-fold | Fold Decrease in concentration of Antibiotic [1]: No | FIC [2]: 0.31 | Fold decrease AB103-D [2]: 16-fold | Fold decrease Antibiotic [2]: 4-fold | MIC [3, 7]: 0.06 µg/mL | MIC [3, 8]: 0.25 µg/mL | MIC [4, 9]: 0.25 µg/mL | MIC ([4]; read-out: MIC in MHB medium): 0.125 µg/mL

C/C(=C\C(=O)OCCCCCCCCC(=O)O)C[C@@H]1OC[C@H](C[C@@H]2O[C@H]2[C@@H](C)[C@H](C)O)[C@@H](O)[C@H]1O [Mupirocin]
Fold Decrease in concentration of AB103-D [1]: No | Fold Decrease in concentration of Antibiotic [1]: No | FIC [2]: 0.75 | Fold decrease AB103-D [2]: 2-fold | Fold decrease Antibiotic [2]: 4-fold | MIC [3, 7]: > 128 µg/mL | MIC [3, 8]: > 256 µg/mL | MIC [4, 9]: 0.25 µg/mL | MIC ([4]; read-out: MIC in MHB medium): 0.125 µg/mL

CCn1cc(C(=O)O)c(=O)c2cc(F)c(N3CCNCC3)cc21 [Norfloxacin]
FIC against biofilms ([1]; PAO1, BM2): 1.13 | Fold Decrease in concentration of AB103-D [1]: No | Fold Decrease in concentration of Antibiotic [1]: 8-fold | FIC [2]: 0.5 | Fold decrease AB103-D [2]: 4-fold | Fold decrease Antibiotic [2]: 4-fold | MIC [3, 7]: 0.25 µg/mL | MIC [3, 8]: 0.5 µg/mL | MIC [4, 9]: 32 µg/mL | MIC ([4]; read-out: MIC in MHB medium): 32 µg/mL

Reference: US20260374818A1, “CATIONIC PEPTIDES WITH BROAD SPECTRUM ACTIVITY” (priority 2023, published 2026)
